Measurements: the supplement of paper PMC4862054
Several values for one entry are separate records, joined by “and”; a condition that tells them apart may be missing. Equal entries are not always repeated.

Tests used:
CAL-85-1 [1] = assay: normalised viability (% of control), CellTiter-Blue; higher = more viable cells (about 100 = DMSO control); conditions: incubation time: 72 h
Experimental: (§1)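 DSRT, CellTiter-Blue viability, 72 h incubation. Signal is normalised to DMSO and benzethonium chloride controls. Value is the normalised response at dose 9.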

CAL-148 [2] = assay: as above; conditions: incubation time: 72 h
Experimental: as §1

MDA-MB-453 [3] = assay: as above; conditions: incubation time: 72 h
Experimental: as §1

DU-4475 [4] = assay: as above; conditions: incubation time: 72 h
Experimental: as §1

CAL-51 [5] = assay: as above; conditions: incubation time: 72 h
Experimental: as §1

HDQ-P1 [6] = assay: as above; conditions: incubation time: 72 h
Experimental: as §1

BT-474 [7] = conditions: 72 h
Experimental: (§2)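 Drug sensitivity and resistance testing (DSRT) of breast cancer cell lines in 384-well plates, 5 concentrations in 10-fold dilutions over a compound-specific 10,000-fold range. After 72 h, cytotoxicity was read by CellTox Green fluorescence and viability by CellTiter-Glo luminescence (multiplexed), normalised to DMSO and benzethonium chloride controls. EC50 is the inflection point of the fitted dose-response curve (bottom asymptote free, so it can be relative for partial curves) and is censored at the highest tested concentration. Rows with DSS 0 (no meaningful response) were excluded.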

MDA-MB-453 [8] = conditions: 72 h
Method in brief: (§3)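 Breast cancer cell lines in 20 µl suspension were seeded onto 384-well plates that already held compound dissolved in 5 µl medium and were incubated for 72 h. Viability was measured by adding 2.5 µl CellTiter-Blue for 2 h at 37 °C and reading fluorescence at 560/590 nm. Each plate was normalised to vehicle and a positive kill control and checked by Z'-factor. EC50 was taken from a fitted percent-inhibition dose-response curve, censored at the highest concentration, and rows with a drug sensitivity score of zero were removed.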

HCC1143 = conditions: 72 h
Method in brief: as §3

HCC1937 = conditions: 72 h
Method in brief: as §3

CAL-148 [9] = conditions: 72 h
Method in brief: as §3

DU-4475 [10] = conditions: 72 h
Method in brief: as §3

CAL-51 [11] = conditions: 72 h
Method in brief: as §3

MDA-MB-231 = conditions: 72 h
Experimental: as §2

BT-549 = conditions: 72 h
Method in brief: as §3

HDQ-P1 [12] = conditions: 72 h
Method in brief: as §3

CAL-85-1 [13] = conditions: 72 h
Experimental: as §2

MCF-10A = conditions: 72 h
Experimental: as §2

MDA-MB-468 [14] = conditions: 72 h
Experimental: as §2

HDQ-P1 [15] = conditions: 72 h; remark: listed apart in the source
Experimental: as §2

SK-BR-3 = conditions: 72 h
Method in brief: as §3

BT-474 [16] = conditions: 72 h; remark: listed apart in the source
Method in brief: as §3

MDA-MB-468 [17] = conditions: 72 h; remark: listed apart in the source
Method in brief: as §3

MFM-223 [18] = conditions: 72 h
Method in brief: as §3

CAL-148 [19] = conditions: 72 h; remark: listed apart in the source
Experimental: as §2

HCC1599 = conditions: 72 h
Method in brief: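 A 20 µl suspension of breast cancer cells was placed in 384-well plates that already contained compound at 5 concentrations in 10-fold steps across a compound-specific 10,000-fold range, and the plates were left for 72 h. CellTox Green fluorescence at 485/520 nm gave cell death, and CellTiter-Glo luminescence, read after 10 min at room temperature, gave viability. Each plate was normalised to 0.1 % DMSO and a positive kill control. EC50 was fitted from the curves and censored at the top concentration.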

Hs578T = conditions: 72 h
Experimental: as §2

MFM-223 [20] = conditions: 72 h; remark: listed apart in the source
Experimental: as §2

Work on `Cc1cc2c(F)c(Oc3ncnn4cc(OC[C@@H](C)O)c(C)c34)ccc2[nH]1` [Brivanib] (1000 nM) yielded a normalised viability (CAL-85-1 [1]) of 86.9%, a normalised viability (CAL-148 [2]) of 86.8% and a normalised viability (MDA-MB-453 [3]) of 99.1%. It also gave a normalised viability (DU-4475 [4]) of 107%, a normalised viability (CAL-51 [5]) of 101% and a normalised viability (HDQ-P1 [6]) of 117%.
In the case of `CC/C(=C(\c1ccccc1)c1ccc(OCCN(C)C)cc1)c1ccccc1` [Tamoxifen] (10000 nM), the normalised viability (CAL-85-1 [1]) is reported as 102%, the normalised viability (CAL-148 [2]) is reported as 120% and the normalised viability (MDA-MB-453 [3]) is reported as 17.4%. For the same compound, the normalised viability (DU-4475 [4]) was 108%, the normalised viability (CAL-51 [5]) was 90.2% and the normalised viability (HDQ-P1 [6]) was 78.5%.
In the case of `C[C@@H](C(=O)O)c1ccc(-c2ccccc2)c(F)c1` [Tarenflurbil], the “EC50, CellTox Green” value (BT-474 [7]) is reported as > 10 µM and the “EC50, CellTiter-Blue viability” value (MDA-MB-453 [8]) is reported as 1410 nM.
In the case of `CC(C)C(=O)Nc1ccc([N+](=O)[O-])c(C(F)(F)F)c1` [Flutamide] (10000 nM), the normalised viability (CAL-85-1 [1]) is reported as 84.8%, the normalised viability (CAL-148 [2]) is reported as 106% and the normalised viability (MDA-MB-453 [3]) is reported as 91.7%. The normalised viability (DU-4475 [4]) was 87.4%, the normalised viability (CAL-51 [5]) was 98.3% and the normalised viability (HDQ-P1 [6]) was 124%.
With `NC(=O)c1cccc2cn(-c3ccc([C@@H]4CCCNC4)cc3)nc12` [MK-4827] the “EC50, CellTiter-Blue viability” value (HCC1143) was 1660 nM, the “EC50, CellTiter-Blue viability” value (HCC1937) was 1.33 µM and the “EC50, CellTiter-Blue viability” value (CAL-148 [9]) was 2330 nM. For the same compound, the “EC50, CellTiter-Blue viability” value (DU-4475 [10]) was 4.42 µM and the “EC50, CellTiter-Blue viability” value (CAL-51 [11]) was 1780 nM.
`O=C(O)CC[C@H]1CC[C@@](c2cc(F)ccc2F)(S(=O)(=O)c2ccc(Cl)cc2)CC1` [MK-0752] (1000 nM) showed a normalised viability (CAL-85-1 [1]) of 104%, a normalised viability (CAL-148 [2]) of 119% and a normalised viability (MDA-MB-453 [3]) of 117%. For the same compound, the normalised viability (DU-4475 [4]) was 110%, the normalised viability (CAL-51 [5]) was 100% and the normalised viability (HDQ-P1 [6]) was 126%.
With `Cc1c(C(=O)Nc2ccc(N3C[C@@H](C)O[C@@H](C)C3)nc2)cccc1-c1ccc(OC(F)(F)F)cc1` [Erismodegib] the “EC50, CellTox Green” value (MDA-MB-231) was > 10 µM.
Work on `CC(C)C[C@H](NC(=O)[C@H](CCc1ccccc1)NC(=O)CN1CCOCC1)C(=O)N[C@@H](Cc1ccccc1)C(=O)N[C@@H](CC(C)C)C(=O)[C@@]1(C)CO1` [Carfilzomib] (1000 nM) yielded a normalised viability (CAL-85-1 [1]) of 2.67%, a normalised viability (CAL-148 [2]) of 2.83% and a normalised viability (MDA-MB-453 [3]) of 12.3%. For the same compound, the normalised viability (DU-4475 [4]) was 2.97%, the normalised viability (CAL-51 [5]) was 1.6% and the normalised viability (HDQ-P1 [6]) was 0.68%.
For `NC(=O)NO` [Hydroxyurea], the “EC50, CellTiter-Blue viability” value (HCC1937) was 13.4 µM.
Work on `Nc1nc(Cl)nc2c1ncn2[C@@H]1O[C@H](CO)[C@@H](O)[C@@H]1F` [Clofarabine] (10000 nM) yielded a normalised viability (CAL-85-1 [1]) of 51.2%, a normalised viability (CAL-148 [2]) of 35.5% and a normalised viability (MDA-MB-453 [3]) of 41.2%. The normalised viability (DU-4475 [4]) was 14%, the normalised viability (CAL-51 [5]) was 12.4% and the normalised viability (HDQ-P1 [6]) was 91.7%.
With `Cn1nnc2c(C(N)=O)ncn2c1=O` [Temozolomide] the “EC50, CellTiter-Blue viability” value (BT-549) was 1330 nM and the “EC50, CellTiter-Blue viability” value (HDQ-P1 [12]) was 7.85 µM.
`CCCCCOC(=O)Nc1nc(=O)n([C@@H]2O[C@H](C)[C@@H](O)[C@H]2O)cc1F` [Capecitabine] (10000 nM) was tested, and the normalised viability (CAL-148 [2]) was 75.5% and 97.8%, the normalised viability (DU-4475 [4]) was 88.5% and 90.4% and the normalised viability (CAL-51 [5]) was 88.9% and 91.6%. The normalised viability (HDQ-P1 [6]) was 105% and 87.3%.
`COc1cc2c(cc1-c1c(C)noc1C)ncc1[nH]c(=O)n([C@H](C)c3ccccn3)c12` [I-BET151] was tested, and the “EC50, CellTox Green” value (CAL-85-1 [13]) was 1370 nM, the “EC50, CellTox Green” value (MCF-10A) was 6.94 µM and the “EC50, CellTox Green” value (MDA-MB-231) was 8.48 µM. The “EC50, CellTox Green” value (MDA-MB-468 [14]) was 3.14 µM and the “EC50, CellTox Green” value (HDQ-P1 [15]) was 123 nM.
`O=NN(CCCl)C(=O)NC1CCCCC1` [Lomustine] (10000 nM) was tested, and the normalised viability (CAL-85-1 [1]) was 77.4%, the normalised viability (CAL-148 [2]) was 99.1% and the normalised viability (MDA-MB-453 [3]) was 47.5%. For the same compound, the normalised viability (DU-4475 [4]) was 91.5%, the normalised viability (CAL-51 [5]) was 104% and the normalised viability (HDQ-P1 [6]) was 111%.
For `NC1(c2ccc(-c3nc4ccn5c(=O)[nH]nc5c4cc3-c3ccccc3)cc2)CCC1` [MK-2206], the “EC50, CellTiter-Blue viability” value (SK-BR-3) was 116 nM, the “EC50, CellTiter-Blue viability” value (BT-474 [16]) was 192 nM and the “EC50, CellTiter-Blue viability” value (MDA-MB-468 [17]) was 131 nM. For the same compound, the “EC50, CellTiter-Blue viability” value (MFM-223 [18]) was 369 nM, the “EC50, CellTox Green” value (CAL-148 [19]) was 478 nM and the “EC50, CellTiter-Blue viability” value (CAL-148 [9]) was 790 nM. The “EC50, CellTiter-Blue viability” value (MDA-MB-453 [8]) was 436 nM and the “EC50, CellTiter-Blue viability” value (CAL-51 [11]) was 942 nM.
For `CC[C@H](CC#N)OC(=O)N[C@@H](C)c1cccc(NC(=O)Nc2ccc(-c3cnco3)c(OC)c2)c1` [AVN944], the “EC50, CellTiter-Glo” value (HCC1599) was 649 nM and the “EC50, CellTox Green” value (Hs578T) was 191 nM.
`CC(C)n1nc(-c2ccc3oc(N)nc3c2)c2c(N)ncnc21` [INK128] was tested, and the “EC50, CellTiter-Glo” value (HCC1599) was 28.8 nM, the “EC50, CellTox Green” value (CAL-148 [19]) was 56.9 nM and the “EC50, CellTox Green” value (Hs578T) was 130 nM. For the same compound, the “EC50, CellTox Green” value (MFM-223 [20]) was 494 nM.
`NC(=O)c1cccc2cn(-c3ccc([C@@H]4CCCNC4)cc3)nc12` [MK-4827] (10000 nM) showed a normalised viability (CAL-85-1 [1]) of 73.2%, a normalised viability (CAL-148 [2]) of 59.2% and a normalised viability (MDA-MB-453 [3]) of 63.2%. It also gave a normalised viability (DU-4475 [4]) of 32.7%, a normalised viability (CAL-51 [5]) of 40.7% and a normalised viability (HDQ-P1 [6]) of 94%.
`CCN(CC)CCOc1ccc(C(=C(Cl)c2ccccc2)c2ccccc2)cc1` [Clomifene] (10000 nM) gave a normalised viability (CAL-85-1 [1]) of 42.8%, a normalised viability (CAL-148 [2]) of 93.4% and a normalised viability (MDA-MB-453 [3]) of 7.39%. For the same compound, the normalised viability (DU-4475 [4]) was 48.2%, the normalised viability (CAL-51 [5]) was 84.7% and the normalised viability (HDQ-P1 [6]) was 38.8%.
